Values after ≈ are worked out from the molar mass of the structure shown.
Assays:
Aspergillus fumigatus [1] = assay: Antimicrobial activity against itraconazole-susceptible Aspergillus fumigatus clinical isolate expressing cyp51A F46Y, G89G, E427K, C454C mutant gene by CLSI method; type: functional
Aspergillus fumigatus [2] = assay: Antimicrobial activity against itraconazole-resistant Aspergillus fumigatus clinical isolate expressing cyp51A L98H, L339L mutant gene by CLSI method; type: functional
Aspergillus fumigatus [3] = assay: Antimicrobial activity against itraconazole-susceptible Aspergillus fumigatus clinical isolate expressing cyp51A F46Y, G89G, M172V, L358L, E427K, C454C mutant gene by CLSI method; type: functional
Aspergillus fumigatus [4] = assay: Antimicrobial activity against itraconazole-susceptible Aspergillus fumigatus environmental isolate expressing cyp51A F46Y, G89G, M172V, L358L, C454C mutant gene by CLSI method
Aspergillus fumigatus [5] = assay: Antimicrobial activity against itraconazole-susceptible Aspergillus fumigatus clinical isolate expressing cyp51A L252L mutant gene by CLSI method; type: functional
Aspergillus fumigatus [6] = assay: Antimicrobial activity against itraconazole-resistant Aspergillus fumigatus clinical isolate expressing cyp51A G138C mutant gene by CLSI method; type: functional
Aspergillus fumigatus [7] = assay: Antimicrobial activity against itraconazole-resistant Aspergillus fumigatus clinical isolate expressing cyp51A M220V mutant gene by CLSI method; type: functional
Aspergillus fumigatus [8] = assay: Antimicrobial activity against itraconazole-resistant Aspergillus fumigatus environmental isolate expressing cyp51A L98H, Q141H mutant gene by CLSI method
Aspergillus fumigatus [9] = assay: Antimicrobial activity against itraconazole-resistant Aspergillus fumigatus clinical isolate expressing cyp51A M220I mutant gene by CLSI method; type: functional
Aspergillus fumigatus [10] = assay: Antimicrobial activity against itraconazole-susceptible Aspergillus fumigatus clinical isolate expressing wild type cyp51A gene by CLSI method; type: functional
Aspergillus fumigatus [11] = assay: Antimicrobial activity against itraconazole-susceptible Aspergillus fumigatus clinical isolate expressing cyp51A S400I mutant gene by CLSI method; type: functional
Aspergillus fumigatus [12] = assay: Antimicrobial activity against itraconazole-resistant Aspergillus fumigatus clinical isolate expressing cyp51A M220R mutant gene by CLSI method; type: functional
Aspergillus fumigatus [13] = assay: Antimicrobial activity against itraconazole-resistant Aspergillus fumigatus clinical isolate expressing cyp51A L98H, N125I mutant gene by CLSI method; type: functional
Aspergillus fumigatus [14] = assay: Antimicrobial activity against itraconazole-resistant Aspergillus fumigatus clinical isolate expressing cyp51A L98H, F495I mutant gene by CLSI method; type: functional
Aspergillus fumigatus [15] = assay: Antimicrobial activity against itraconazole-resistant Aspergillus fumigatus clinical isolate expressing cyp51A L98H, Q88H mutant gene and by CLSI method; type: functional
Aspergillus fumigatus [16] = assay: Antimicrobial activity against itraconazole-susceptible Aspergillus fumigatus clinical isolate expressing cyp51A F46Y, G89G, M172V, N248T, D255E, L358L, E427K, C454C mutant gene by CLSI method; type: functional
Aspergillus fumigatus [17] = assay: Antimicrobial activity against itraconazole-resistant Aspergillus fumigatus clinical isolate expressing cyp51A L98H mutant gene by CLSI method; type: functional
Aspergillus fumigatus [18] = assay: Antimicrobial activity against itraconazole-resistant Aspergillus fumigatus clinical isolate expressing cyp51A F46Y, G89G, M172V, N248T, D255E, L358L, E427K and C454C mutant gene by CLSI method; type: functional
Aspergillus fumigatus [19] = assay: Antimicrobial activity against itraconazole-susceptible Aspergillus fumigatus clinical isolate expressing cyp51A F46Y, G89G mutant gene by CLSI method; type: functional
Aspergillus fumigatus [20] = assay: Antimicrobial activity against itraconazole-resistant Aspergillus fumigatus clinical isolate expressing cyp51A G54E mutant gene by CLSI method; type: functional
Aspergillus fumigatus [21] = assay: Antimicrobial activity against itraconazole-resistant Aspergillus fumigatus clinical isolate expressing cyp51A L98H, S297T, F495 mutant gene by CLSI method; type: functional
Aspergillus fumigatus [22] = assay: Antimicrobial activity against itraconazole-resistant Aspergillus fumigatus clinical isolate expressing wild type cyp51A gene by CLSI method; type: functional
Aspergillus fumigatus [23] = assay: Antimicrobial activity against itraconazole-susceptible Aspergillus fumigatus clinical isolate expressing cyp51A F46Y, G89G, M172V, N248T, D255E, E427K mutant gene by CLSI method; type: functional
Aspergillus fumigatus [24] = assay: Antimicrobial activity against itraconazole-resistant Aspergillus fumigatus clinical isolate expressing cyp51A L98H, A284A mutant gene by CLSI method; type: functional
Aspergillus fumigatus [25] = assay: Antimicrobial activity against itraconazole-resistant Aspergillus fumigatus environmental isolate expressing cyp51A L98H, S52T mutant gene by CLSI method
Aspergillus fumigatus [26] = assay: Antimicrobial activity against itraconazole-susceptible Aspergillus fumigatus clinical isolate expressing cyp51A F46Y, M172V, L358L, E427K, C454C mutant gene by CLSI method; type: functional
Aspergillus fumigatus [27] = assay: Antimicrobial activity against itraconazole-resistant Aspergillus fumigatus clinical isolate expressing cyp51A G54W mutant gene by CLSI method; type: functional
Aspergillus fumigatus [28] = assay: Antimicrobial activity against itraconazole-resistant Aspergillus fumigatus clinical isolate expressing cyp51A M220K mutant gene by CLSI method; type: functional
Aspergillus fumigatus [29] = assay: Antimicrobial activity against itraconazole-susceptible Aspergillus fumigatus clinical isolate expressing cyp51A F46Y, G89G, L358L, E427K, C454C mutant gene by CLSI method; type: functional
Aspergillus fumigatus [30] = assay: Antimicrobial activity against itraconazole-susceptible Aspergillus fumigatus clinical isolate expressing cyp51A E130D mutant gene by CLSI method; type: functional

Row | Compound | MIC (Aspergillus fumigatus [1]) [µg/mL] | MIC (Aspergillus fumigatus [2]) [µg/mL] | MIC (Aspergillus fumigatus [3]) [µg/mL] | MIC (Aspergillus fumigatus [4]) [µg/mL] | MIC (Aspergillus fumigatus [5]) [µg/mL] | MIC (Aspergillus fumigatus [6]) [µg/mL] | MIC (Aspergillus fumigatus [7]) [µg/mL] | MIC (Aspergillus fumigatus [8]) [µg/mL] | MIC (Aspergillus fumigatus [9]) [µg/mL] | MIC (Aspergillus fumigatus [10]) [µg/mL] | MIC (Aspergillus fumigatus [11]) [µg/mL] | MIC (Aspergillus fumigatus [12]) [µg/mL] | MIC (Aspergillus fumigatus [13]) [µg/mL] | MIC (Aspergillus fumigatus [14]) [µg/mL] | MIC (Aspergillus fumigatus [15]) [µg/mL] | MIC (Aspergillus fumigatus [16]) [µg/mL] | MIC (Aspergillus fumigatus [17]) [µg/mL] | MIC (Aspergillus fumigatus [18]) [µg/mL] | MIC (Aspergillus fumigatus [19]) [µg/mL] | MIC (Aspergillus fumigatus [20]) [µg/mL] | also measured
1 | CCC(C)n1ncn(-c2ccc(N3CCN(c4ccc(OCC5COC(Cn6cncn6)(c6ccc(Cl)cc6Cl)O5)cc4)CC3)cc2)c1=O (stereo not given) [ITRACONAZOLE] | 0.25 (≈ 0.354 µM) | > 16 | 0.125 (≈ 0.177 µM) | 0.25 (≈ 0.354 µM) | 0.25 (≈ 0.354 µM) | > 16 | > 16 | > 16 | > 16 | 0.125 (≈ 0.177 µM) | 1 (≈ 1.42 µM) | > 16 | > 16 | > 16 | > 16 | 0.25 (≈ 0.354 µM) | 4 (≈ 5.67 µM) | > 16 | 0.125 (≈ 0.177 µM) | > 16 | MIC (Aspergillus fumigatus [21]): 16 µg/mL (≈ 22.7 µM); MIC (Aspergillus fumigatus [22]): 8 µg/mL (≈ 11.3 µM); MIC (Aspergillus fumigatus [23]): 0.25 µg/mL (≈ 0.354 µM); MIC (Aspergillus fumigatus [24]): > 16 µg/mL; MIC (Aspergillus fumigatus [25]): > 16 µg/mL; MIC (Aspergillus fumigatus [26]): 0.125 µg/mL (≈ 0.177 µM); MIC (Aspergillus fumigatus [27]): > 16 µg/mL; MIC (Aspergillus fumigatus [28]): > 16 µg/mL; MIC (Aspergillus fumigatus [29]): 0.25 µg/mL (≈ 0.354 µM); MIC (Aspergillus fumigatus [30]): 0.5 µg/mL (≈ 0.709 µM)
2 | C[C@@H](c1ncncc1F)[C@](O)(Cn1cncn1)c1ccc(F)cc1F [VORICONAZOLE] | 0.25 (≈ 0.716 µM) | 8 (≈ 22.9 µM) | 0.5 (≈ 1.43 µM) | 1 (≈ 2.86 µM) | 1 (≈ 2.86 µM) | 8 (≈ 22.9 µM) | 1 (≈ 2.86 µM) | 4 (≈ 11.5 µM) | 1 (≈ 2.86 µM) | 0.5 (≈ 1.43 µM) | 2 (≈ 5.73 µM) | 2 (≈ 5.73 µM) | 8 (≈ 22.9 µM) | 2 (≈ 5.73 µM) | 8 (≈ 22.9 µM) | 0.25 (≈ 0.716 µM) | 2 (≈ 5.73 µM) | > 16 | 0.5 (≈ 1.43 µM) | 0.25 (≈ 0.716 µM) | MIC (Aspergillus fumigatus [21]): 1 µg/mL (≈ 2.86 µM); MIC (Aspergillus fumigatus [22]): 0.25 µg/mL (≈ 0.716 µM); MIC (Aspergillus fumigatus [23]): 1 µg/mL (≈ 2.86 µM); MIC (Aspergillus fumigatus [24]): 4 µg/mL (≈ 11.5 µM); MIC (Aspergillus fumigatus [25]): 4 µg/mL (≈ 11.5 µM); MIC (Aspergillus fumigatus [26]): 1 µg/mL (≈ 2.86 µM); MIC (Aspergillus fumigatus [27]): 0.25 µg/mL (≈ 0.716 µM); MIC (Aspergillus fumigatus [28]): 2 µg/mL (≈ 5.73 µM); MIC (Aspergillus fumigatus [29]): 2 µg/mL (≈ 5.73 µM); MIC (Aspergillus fumigatus [30]): 0.5 µg/mL (≈ 1.43 µM)
3 | CC[C@@H]([C@H](C)O)n1ncn(-c2ccc(N3CCN(c4ccc(OC[C@@H]5CO[C@@](Cn6cncn6)(c6ccc(F)cc6F)C5)cc4)CC3)cc2)c1=O [POSACONAZOLE] | 0.063 (≈ 0.0899 µM) | 1 (≈ 1.43 µM) | 0.063 (≈ 0.0899 µM) | 0.125 (≈ 0.178 µM) | 0.5 (≈ 0.713 µM) | > 16 | 0.5 (≈ 0.713 µM) | 0.5 (≈ 0.713 µM) | 0.5 (≈ 0.713 µM) | 0.031 (≈ 0.0442 µM) | 0.25 (≈ 0.357 µM) | 2 (≈ 2.85 µM) | 0.5 (≈ 0.713 µM) | 0.125 (≈ 0.178 µM) | 0.25 (≈ 0.357 µM) | 0.063 (≈ 0.0899 µM) | 0.25 (≈ 0.357 µM) | 1 (≈ 1.43 µM) | 0.016 (≈ 0.0228 µM) | 0.25 (≈ 0.357 µM) | MIC (Aspergillus fumigatus [21]): 0.063 µg/mL (≈ 0.0899 µM); MIC (Aspergillus fumigatus [22]): 0.125 µg/mL (≈ 0.178 µM); MIC (Aspergillus fumigatus [23]): 0.063 µg/mL (≈ 0.0899 µM); MIC (Aspergillus fumigatus [24]): 0.5 µg/mL (≈ 0.713 µM); MIC (Aspergillus fumigatus [25]): 0.5 µg/mL (≈ 0.713 µM); MIC (Aspergillus fumigatus [26]): 0.063 µg/mL (≈ 0.0899 µM); MIC (Aspergillus fumigatus [27]): > 16 µg/mL; MIC (Aspergillus fumigatus [28]): > 16 µg/mL; MIC (Aspergillus fumigatus [29]): 0.063 µg/mL (≈ 0.0899 µM); MIC (Aspergillus fumigatus [30]): 0.125 µg/mL (≈ 0.178 µM)
